Source: US12023336B2, “Antiviral drug compounds and composition thereof” (priority 2018, dated 2024)
Counter-ions that a name gives are not always drawn. Like-named read-outs stand apart in the source and are kept apart here.

What was measured:
Assay type in all cases: cell-based
[1] = tested on: HIV-1NL4.3; assay: microbe, parasite or virus in culture; details: for inhibition at 10 µM: read-out: % Inhibition at 10 μM Concentration
Method: TZM-bl cells were seeded at the density of 12,000-15,000 cells/well of 96 well plate with 100 μL DMEM (with 10% FBS) in each well. 12-hours post seeding, the media was replaced with fresh DMEM containing HTV-1NL4.3 at 0.1 MOI and cells were treated with different molecules independently at 10 μM working concentration. Cells were incubated in humidified CO2 incubator for 4-hours. After incubation, the media was replaced and cells were washed twice with incomplete DMEM and 100 μL of complete DMEM was added in each wells along with the molecules of interest and incubated at 37° C. in humidified CO2 incubator. 48-hours post incubation, the media was removed and cells were washed twice with 100 μL of 1×PBS. After washing, cells were lysed using cell culture lysis reagent and Steady-Glo substrate was added at 1:1 ration in each well. Luminescence was measured using Molecular Devices M5 (Table 2). % Inhibition was calculated using following formula and plotted.
[formula] (RLU=Relative Luminescence Unit)

[2] = tested on: CEM-GFP cells; assay: MTT cell viability assay in CEM-GFP cells; details: concentration at which cell viability was 50%
Method: (a-b) CEM-GFP cells were treated with different concentrations of MTX-HYD and MTX and cytotoxicity was determined by MTT cell viability assay. […] (c-d) CEM-GFP cells were infected with 0.5 MOI (Multiplicity of infection) of HIV-1NL4.3 virus in presence of MTX-HYD or MTX. 72-hours post infection supernatant was collected and virus production was determined by p24 antigen capture ELISA.
Cytotoxicity of MTX-HYD and MTX and their analogues was determined by MTT cell proliferation assay kit, (Roche, Germany) as described earlier. Briefly, cells were seeded at the density of 25,000 cells/well in 96 well plate containing 100 μL of RPMI. Molecules at different concentration was added to the media and incubated in humidified CO2 incubator. Untreated cells were taken as negative control and DMSO treated cells were taken as vehicle control. 48-hours post incubation, 10 μL of MTT (5 mg/mL) was added in each well in dark and incubated at 37° C. for the formation of formazan crystals. 4-hours post incubation, the crystals were dissolved using 100 μL isopropanol and the absorbance was read at 570 nm.

[3] = tested on: HIV-1NL4.3; details: for inhibition of replication of HIV-1NL4.3: 100 nM, CEM-GFP (FIG. 9); for IC50: HIV-1NL4.3 0.5 MOI, p24 ELISA 72 h post infection
Method: Cells were then treated with molecules at different concentrations.

[4] = 10 μM, HIV-1NL4.3 0.1 MOI, TZM-bl cells, luminescence 48 h
[5] = Human immunodeficiency virus 1, TZM-bl, 48 h
[6] = Human immunodeficiency virus 1, 10 μM, HIV-1NL4.3 0.1 MOI, TZM-bl cells, luminescence 48 h

| Compound | % Inhibition at 10 μM Concentration [1, 4] | inhibition at 10 µM [1, 6] | further results |
| --- | --- | --- | --- |
| NC(Cc1cc(O)c(O)cc1O)C(=O)O (racemic) [6-Hydroxy-DL-DOPA] | 96.67% |  |  |
| Cl.NCCCC(N)(C(=O)O)C(F)F (racemic) [DL-alpha-Difluoromethylornithine hydrochloride] | 97.06% |  |  |
| O=C1c2ccccc2C(=O)c2c(NCCc3ccc(O)cc3)ccc(NCCc3ccc(O)cc3)c21 [1,4-Bis[(p-hydroxyphenethyl)amino]-anthraquinone] |  |  | inhibition at 10 µM [1, 5]: 98.9% |
| O=Nc1ccc2oc(=O)ccc2c1 [6-Nitroso-1,2-benzopyrone] | 99.15% |  |  |
| N[C@@H](Cn1oc(=O)[nH]c1=O)C(=O)O [(+)-Quisqualic acid] | 99.30% |  |  |
| CC(C)NC[C@H](O)COc1cccc2ccccc12.Cl [(S)-Propranolol hydrochloride] | 99.30% |  |  |
| CC(=O)OC[C@H]1O[C@@H]([S-])[C@H](OC(C)=O)[C@@H](OC(C)=O)[C@@H]1OC(C)=O.CCP(CC)CC.[Au+] [Auranofin] | 96.08% |  |  |
| O=C(O)C1=CC(=C(c2ccc(O)c(C(=O)O)c2)c2ccc(O)c(C(=O)O)c2)C=CC1=O [Aurintricarboxylic acid] |  | 97.2% |  |
| COc1ccc(-c2cc3nccn3c(Nc3ncccc3C(N)=O)n2)cc1OC.Cl.O [BAY 61-3606 hydrochloride hydrate] | 95.05% |  |  |
| O=C(O)/C=C\C(=O)O.O=C1/C(=C/c2ccccc2)C[C@@]2(O)[C@H]3Cc4ccc(O)c5c4[C@@]2(CCN3CC2CC2)[C@H]1O5 [BNTX maleate salt hydrate] | 99.26% |  |  |
| CCCCN(CC)c1nc(C)nc2c1c(C)cn2-c1c(C)cc(C)cc1C [CP-154526 hydrochloride] |  | 97.1% |  |
| Cc1ccc(-c2cc(C(F)(F)F)nn2-c2ccc(S(N)(=O)=O)cc2)cc1 [Celecoxib] |  | 95.1% |  |
| CC(=O)O[C@]1(C(C)=O)CC[C@H]2[C@@H]3C=C(Cl)C4=CC(=O)[C@@H]5C[C@@H]5[C@]4(C)[C@H]3CC[C@@]21C [Cyproterone acetate] |  | 98.5% |  |
| O=c1oc(Cl)c(Cl)c2ccccc12 [Dichloroisocoumarin] | 97.06% |  |  |
| COc1cc2nc(N3CCN(C(=O)C4COc5ccccc5O4)CC3)nc(N)c2cc1OC (stereo not drawn) [Doxazosin mesylate] |  | 100% |  |
| CCCCc1ncc(/C=C(\Cc2cccs2)C(=O)O)n1Cc1ccc(C(=O)O)cc1 [Eprosartan mesylate] |  | 99.8% |  |
| CC1=NN=C(c2ccc(N)cc2)c2cc3c(cc2C1)OCO3 [GYKI 52466 hydrochloride] |  | 99.3% |  |
| Cc1cnc(C(=O)NCCc2ccc(S(=O)(=O)NC(=O)NC3CCCCC3)cc2)cn1 [Glipizide] |  | 98.5% |  |
| N=C(N)N/N=C/c1c(Cl)cccc1Cl [Guanabenz acetate] |  | 99.6% |  |
| CNCCNS(=O)(=O)c1cccc2cnccc12.Cl.Cl [H-8 dihydrochloride] | 99.57% |  |  |
| CN[C@@H]1C[C@@H](c2ccc(Cl)c(Cl)c2)c2ccccc21 [Indatraline hydrochloride] |  | 97.4% |  |
| Oc1ccc(/C=C/c2ccc(/C=C/c3ccc(O)cc3)c(Br)c2)cc1 [K114] | 96.16% |  |  |
| O=C1Cc2c([nH]c3ccc(Br)cc23)-c2ccccc2N1 [Kenpaullone] |  | 98.7% |  |
| CCOC(=O)c1ncn2c1[C@@H]1CCCN1C(=O)c1cc(OC)ccc1-2 [L-655,708] | 97.43% |  |  |
| CC[N+](CC)(CC)CCOc1ccc(/C=C/c2ccccc2)cc1 [MG 624] |  | 97.1% |  |
| O=[N+]([O-])/C=C/c1ccc2c(c1)OCO2 [MNS] | 99.63% |  |  |
| COC(=O)CC[C@H](NC(=O)c1ccc(N(C)Cc2cnc3nc(N)nc(N)c3n2)cc1)C(=O)OC [MTX Dimethyl Ester] |  |  | CC50 [2]: 54.3 ± 3.78 µM; inhibition of replication of HIV-1NL4.3 [3]: inhibits replication of HIV-1NL4.3; TI (Therapeutic index = CC50/IC50) ([3]; CEM-GFP cells): 1675.3; therapeutic index compared with MTX-HYD ([3]; CEM-GFP cells, HIV-1NL4.3): higher therapeutic index than MTX-HYD; IC50 ([3]; CEM-GFP cells): 0.0324 ± 0.00087 µM |

| Compound | % Inhibition at 10 μM Concentration [1, 4] | inhibition at 10 µM [1, 6] | further results |
| --- | --- | --- | --- |
| CN(Cc1cnc2nc(N)nc(N)c2n1)c1ccc(C(=O)N[C@@H](CCC(=O)N[C@@H](CCC(=O)N[C@@H](CCC(=O)N[C@@H](CCC(=O)N[C@@H](CCC(=O)N[C@@H](CCC(=O)N[C@@H](CCC(=O)O)C(=O)O)C(=O)O)C(=O)O)C(=O)O)C(=O)O)C(=O)O)C(=O)O)cc1 [MTX heptaglutamate] |  |  | CC50 [2]: 39.9 ± 1 µM; TI (Therapeutic index = CC50/IC50) ([3]; CEM-GFP cells): 541.87; IC50 ([3]; CEM-GFP cells): 0.0737 ± 0.00165 µM |
| [2H]C([2H])([2H])N(Cc1cnc2nc(N)nc(N)c2n1)c1ccc(C(=O)N[C@@H](CCC(=O)O)C(=O)O)cc1 [MTX-methyl-d3] |  |  | inhibition of replication of HIV-1NL4.3 [3]: inhibits replication of HIV-1NL4.3 |
| CNCCCC12CCC(c3ccccc31)c1ccccc12 [Maprotiline hydrochloride] |  |  | inhibition at 10 µM [1, 5]: 98.9% |
| COc1ccccc1CNCCCCCCNCCCCCCCCNCCCCCCNCc1ccccc1OC [Methoctramine tetrahydrochloride] | 98.94% |  |  |
| O=C1c2c(O)ccc(O)c2C(=O)c2c(NCCNCCO)ccc(NCCNCCO)c21 [Mitoxantrone] |  | 97.1% |  |
| Cc1ccc(S(=O)(=O)N[C@@H](Cc2ccccc2)C(=O)CCl)cc1 [N-p-Tosyl-L-phenylalanine chloromethyl ketone] | 98.76% |  |  |
| O=C(Nc1cccc(C(=O)Nc2ccc(S(=O)(=O)O)c3cc(S(=O)(=O)O)cc(S(=O)(=O)O)c23)c1)Nc1cccc(C(=O)Nc2ccc(S(=O)(=O)O)c3cc(S(=O)(=O)O)cc(S(=O)(=O)O)c23)c1 [NF 023] | 95.77% |  |  |
| CC(C)[C@H]1c2ccc(F)cc2CC[C@@]1(CCN(C)CCCc1nc2ccccc2[nH]1)OC(=O)C1CC1 [NNC 55-0396] | 97.75% |  |  |
| COC(=O)C1=C(C)NC(C)=C(C(=O)OCCN(C)Cc2ccccc2)C1c1cccc([N+](=O)[O-])c1 (stereo not drawn) [Nicardipine hydrochloride] |  | 99.6% |  |
| CNCCC=C1c2ccccc2CCc2ccccc21 [Nortriptyline hydrochloride] |  | 99.2% |  |
| NC(=O)CN1CC(O)CC1=O (stereo not drawn) [Oxiracetam] |  | 96.5% |  |
| Cn1c(=O)c(-c2c(Cl)cccc2Cl)cc2cnc(Nc3ccc(N4CCOCC4)cc3)nc21 [PD173952] | 96.16% |  |  |
| CCN(CC)CCOc1ccc(Nc2ncc3cc(-c4c(Cl)cccc4Cl)c(=O)n(C)c3n2)cc1 [PD-166285 hydrate] |  | 97% |  |
| CS(=O)(=O)c1cccc(CNc2nc(Nc3ccc4c(c3)CCC(=O)N4)ncc2C(F)(F)F)c1 [PF-573228] | 97.23% |  |  |
| Nc1nc2c(ncn2CCOCP(=O)(O)O)c(=O)[nH]1 [PMEG hydrate] | 99.36% |  |  |
| OCCN1CCN(CCCN2c3ccccc3Sc3ccc(Cl)cc32)CC1 [Perphenazine] |  | 99.6% |  |
| CCN(CC)CCCC(C)Nc1c2ccc(Cl)cc2nc2ccc(OC)cc12 (stereo not drawn) [Quinacrine dihydrochloride] |  | 100% |  |
| Nc1ccc(-c2nc3ccc(-c4nc5ccc(N)cc5[nH]4)cc3[nH]2)cc1 [RO 90-7501] | 99.67% |  |  |
| CC1=C(/C=C/C(C)=C/C=C/C(C)=C/C(=O)Nc2ccc(O)cc2)C(C)(C)CCC1 [Retinoic acid p-hydroxyanilide] | 98.52% |  |  |
| CC(C)NC[C@@H](O)c1ccc(O)c(O)c1.O=C(O)C(O)C(O)C(=O)O [S(+)-Isoproterenol (+)-bitartrate] | 97.10% |  |  |
| CCCN1CCC[C@@H](c2cccc(O)c2)C1.Cl [S(−)-3PPP hydrochloride] | 98.60% |  |  |
| Oc1c2ccccc2c2c3c(cccc13)N=N2 [SP600125] |  | 97.5% |  |
| CCc1ccccc1OC[C@@H](O)CN[C@H]1CCCc2ccccc21.O=C(O)C(=O)O [SR 59230A oxalate] | 97.52% |  |  |
| CC(C)(C)c1ccc(C(O)CCCN2CCC(C(O)(c3ccccc3)c3ccccc3)CC2)cc1 (stereo not drawn) [Terfenadine] |  | 98.7% |  |
| CC[C@@]1(O)C(=O)OCc2c1cc1n(c2=O)Cc2cc3c(CN(C)C)c(O)ccc3nc2-1 [Topotecan hydrochloride hydrate] |  | 98.1% |  |
| CCCCNc1c(C(=O)OCC)c(C)nc2c1cnn2CC [Tracazolate] |  | 99.1% |  |
| N#CC(=C(/N)Sc1ccccc1N)/C(C#N)=C(\N)Sc1ccccc1N [U0126] |  |  | inhibition at 10 µM [1, 5]: 97.4% |
